Measurements: PubChem BioAssay AID1963977 (Molecular Pharmacology Branch, DTP, NCI, 2024)
“And” between values parts separate entries of the source, which are not always exact repeats. Equal entries are not always repeated.

Tested on: 624824-186-R-J3-PDC multicell spheroids, viability
Experiment: Anticancer human tumor 624824-186-R-J3-PDC patient-derived colon adenocarcinoma cell line growth inhibition [PI3K]
Details: for viability, T/C: stronger effect = lower value; active = viability on the fitted dose curve at most 10% of control; inactive = the rest
Procedure, shortened: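 High-throughput combination screen: PI3K inhibitors crossed with targeted small molecules on complex spheroids of tumor cells, HUVEC and MSCs at 37 degrees C, 5% CO2. Top concentration was at or near clinical Cmax (otherwise 10 microM), with half-log decrements.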

[1] = curve of first compound, second compound 0.0316 µM
[2] = curve of first compound, second compound 0.1 µM
[3] = curve of first compound, second compound 0.316 µM
[4] = curve of first compound, second compound 1 µM
[5] = second compound 0.0316 µM, first compound 0.0316 µM
[6] = second compound 0.0316 µM, first compound 0.1 µM
[7] = second compound 0.0316 µM, first compound 0.316 µM
[8] = second compound 0.0316 µM, first compound 1 µM
[9] = second compound 0.0316 µM, first compound 3.16 µM
[10] = second compound 0.0316 µM, first compound 10 µM
[11] = second compound 0.1 µM, first compound 0.0316 µM
[12] = second compound 0.1 µM, first compound 0.1 µM
[13] = second compound 0.1 µM, first compound 0.316 µM
[14] = second compound 0.1 µM, first compound 1 µM
[15] = second compound 0.1 µM, first compound 3.16 µM
[16] = second compound 0.1 µM, first compound 10 µM
[17] = second compound 0.316 µM, first compound 0.0316 µM
[18] = second compound 0.316 µM, first compound 0.1 µM
[19] = second compound 0.316 µM, first compound 0.316 µM
[20] = second compound 0.316 µM, first compound 1 µM
[21] = second compound 0.316 µM, first compound 3.16 µM
[22] = second compound 0.316 µM, first compound 10 µM
[23] = second compound 1 µM, first compound 0.0316 µM
[24] = second compound 1 µM, first compound 0.1 µM
[25] = second compound 1 µM, first compound 0.316 µM
[26] = second compound 1 µM, first compound 1 µM
[27] = second compound 1 µM, first compound 3.16 µM
[28] = second compound 1 µM, first compound 10 µM
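Note: spheroids exposed to agents for seven days before luminescence read.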
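Throughout, for viability, T/C: luminescent signal used as a stand-in for spheroid viability; percent viability relative to DMSO vehicle control wells taken as 100%.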

CC1(C)CCC(CN2CCN(c3ccc(C(=O)NS(=O)(=O)c4ccc(NCC5CCOCC5)c([N+](=O)[O-])c4)c(Oc4cnc5[nH]ccc5c4)c3)CC2)=C(c2ccc(Cl)cc2)C1 + COc1c(OCCCN2CCOCC2)ccc2c3n(c(=NC(=O)c4cnc(N)nc4)nc12)CCN3
inactive: viability, T/C (second compound 0.00316 µM, first compound 0.0316 µM) 114% | viability, T/C (second compound 0.00316 µM, first compound 0.1 µM) 99.2% | viability, T/C (second compound 0.00316 µM, first compound 0.316 µM) 111% | viability, T/C (second compound 0.00316 µM, first compound 1 µM) 102% | viability, T/C (second compound 0.00316 µM, first compound 3.16 µM) 121% | viability, T/C (second compound 0.00316 µM, first compound 10 µM) 105% | viability, T/C (second compound 0.01 µM, first compound 0.0316 µM) 93.7% | viability, T/C (second compound 0.01 µM, first compound 0.1 µM) 99.5% | viability, T/C (second compound 0.01 µM, first compound 0.316 µM) 105% | viability, T/C (second compound 0.01 µM, first compound 1 µM) 105% | viability, T/C (second compound 0.01 µM, first compound 3.16 µM) 105% | viability, T/C (second compound 0.01 µM, first compound 10 µM) 107% | viability, T/C [5] 95% | viability, T/C [6] 96.8% | viability, T/C [7] 89.6% | viability, T/C [8] 87.6% | viability, T/C [9] 99.1% | viability, T/C [10] 85.2% | viability, T/C [11] 73.1% | viability, T/C [12] 83.8% | viability, T/C [13] 74.4% | viability, T/C [14] 75.5% | viability, T/C [15] 65% | viability, T/C [16] 80% | viability, T/C [17] 50.7% | viability, T/C [18] 46.9% | viability, T/C [19] 50.7% | viability, T/C [20] 47.2% | viability, T/C [21] 43.1% | viability, T/C [22] 57.9% | viability, T/C [23] 29.5% | viability, T/C [24] 33.7% | viability, T/C [25] 31.5% | viability, T/C [26] 33.7% | viability, T/C [27] 26.9% | viability, T/C [28] 30.8%
< 0.0316 µM: IC50 [3] | IC50 [4]
> 10 µM: IC50 (curve of first compound, second compound 0.00316 µM) | IC50 (curve of first compound, second compound 0.01 µM) | IC50 [1] | IC50 [2]

Cn1ncc(Cl)c1-c1cc(C(=O)NC(CN)Cc2cccc(F)c2)sc1Cl (stereo not given)
inactive: viability, T/C (compound 0.0316 µM) 104% [middle of 4 runs] | viability, T/C (compound 0.1 µM) 101% (2×) and 112% and 104% | viability, T/C (compound 0.316 µM) 95.1% [middle of 4 runs] | viability, T/C (compound 1 µM) 76.3% [middle of 4 runs] | viability, T/C (compound 3.16 µM) 67.9% [middle of 4 runs]
8.4 µM and > 10 µM and 5.42 µM: IC50 (curve of compound)

CNC(=O)c1ccc(N2C(=S)N(c3ccc(C#N)c(C(F)(F)F)c3)C(=O)C2(C)C)cc1F + CC(Nc1ncnc2nc[nH]c12)c1cc2cccc(Cl)c2c(=O)n1-c1ccccc1
inactive: viability, T/C [5] 107% | viability, T/C [6] 102% | viability, T/C [7] 110% | viability, T/C [8] 97.1% | viability, T/C [9] 92.8% | viability, T/C [10] 102% | viability, T/C [11] 97.7% | viability, T/C [12] 101% | viability, T/C [13] 104% | viability, T/C [14] 108% | viability, T/C [15] 106% | viability, T/C [16] 116% | viability, T/C [17] 96.6% | viability, T/C [18] 93.3% | viability, T/C [19] 105% | viability, T/C [20] 94.2% | viability, T/C [21] 105% | viability, T/C [22] 117% | viability, T/C [23] 98.8% | viability, T/C [24] 101% | viability, T/C [25] 107% | viability, T/C [26] 117% | viability, T/C [27] 104% | viability, T/C [28] 101% | viability, T/C (second compound 3.16 µM, first compound 0.0316 µM) 100% | viability, T/C (second compound 3.16 µM, first compound 0.1 µM) 100% | viability, T/C (second compound 3.16 µM, first compound 0.316 µM) 112% | viability, T/C (second compound 3.16 µM, first compound 1 µM) 91.5% | viability, T/C (second compound 3.16 µM, first compound 3.16 µM) 108% | viability, T/C (second compound 3.16 µM, first compound 10 µM) 107% | viability, T/C (second compound 10 µM, first compound 0.0316 µM) 99.1% | viability, T/C (second compound 10 µM, first compound 0.1 µM) 95.2% | viability, T/C (second compound 10 µM, first compound 0.316 µM) 100% | viability, T/C (second compound 10 µM, first compound 1 µM) 88.1% | viability, T/C (second compound 10 µM, first compound 3.16 µM) 93.2% | viability, T/C (second compound 10 µM, first compound 10 µM) 97.9%
> 10 µM: IC50 [1] | IC50 [2] | IC50 [3] | IC50 [4] | IC50 (curve of first compound, second compound 3.16 µM) | IC50 (curve of first compound, second compound 10 µM)
